Columns and labels:
Assay in all cases: relative viability (nuclei count vs DMSO), 5 days (fraction); higher = more cells survive
NCI-H3122 = system: NCI-H3122
Method in brief: (§1)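 Lung cancer cell lines were seeded in 1536-well plates and dosed by pin tool the next day, with either a single drug or a fixed anchor-drug dose combined with five library-drug doses (not always all listed) spaced in √10 steps. Five days later, one step fixed the cells and stained their nuclei (final 0.05% Triton X-100, 1% formaldehyde, 1 ug/ml Hoechst), and nuclei were counted on 4× images. Relative viability is the nuclei count in treated wells divided by the count in vehicle wells, and each value is the median of duplicate plates.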

NCI-H2126 = system: NCI-H2126
Method in brief: as §1

HCC-15 = system: HCC-15
Method in brief: as §1

ChaGo-K-1 = system: ChaGo-K-1
Method in brief: as §1

HCC-78 = system: HCC-78
Method in brief: as §1

CAL-12T = system: CAL-12T
Method in brief: as §1

LXF-289 = system: LXF-289
Method in brief: as §1

NCI-H2085 = system: NCI-H2085
Method in brief: as §1

NCI-H1975 = system: NCI-H1975
Method in brief: as §1

NCI-H441 = system: NCI-H441
Method in brief: as §1

NCI-H1993 = system: NCI-H1993
Method in brief: as §1

ABC-1 = system: ABC-1
Method in brief: as §1

UMC-11 = system: UMC-11
Method in brief: as §1

NCI-H2023 = system: NCI-H2023
Method in brief: as §1

COR-L 105 = system: COR-L 105
Method in brief: as §1

NCI-H1915 = system: NCI-H1915
Method in brief: as §1

NCI-H358 = system: NCI-H358
Method in brief: as §1

NCI-H322M = system: NCI-H322M
Method in brief: as §1

NCI-H1755 = system: NCI-H1755
Method in brief: as §1

HOP-62 = system: HOP-62
Method in brief: as §1

EPLC-272H = system: EPLC-272H
Method in brief: as §1

NCI-H1666 = system: NCI-H1666
Method in brief: as §1

EMC-BAC-2 = system: EMC-BAC-2
Method in brief: as §1

## NC(=O)Nc1cc(-c2cccc(F)c2)sc1C(=O)N[C@H]1CCCNC1 [AZD7762] + O=C(CCCCCCC(=O)Nc1ccccc1)NO [Vorinostat] (partner 1 µM)
NCI-H3122; first compound 0.01 µM
  relative viability: 0.936
NCI-H3122; first compound 0.03162 µM
  relative viability: 0.927
NCI-H3122; first compound 0.1 µM
  relative viability: 1.06
NCI-H3122; first compound 0.3162 µM
  relative viability: 0.925
NCI-H3122; first compound 1 µM
  relative viability: 0.973
NCI-H2126; first compound 0.01 µM
  relative viability: 0.688
NCI-H2126; first compound 0.03162 µM
  relative viability: 0.867
NCI-H2126; first compound 0.1 µM
  relative viability: 0.735
NCI-H2126; first compound 0.3162 µM
  relative viability: 0.773
NCI-H2126; first compound 1 µM
  relative viability: 0.775
HCC-15; first compound 0.01 µM
  relative viability: 0.844
HCC-15; first compound 0.03162 µM
  relative viability: 0.691
HCC-15; first compound 0.1 µM
  relative viability: 0.908
HCC-15; first compound 0.3162 µM
  relative viability: 0.734
HCC-15; first compound 1 µM
  relative viability: 0.723
ChaGo-K-1; first compound 0.01 µM
  relative viability: 0.744
ChaGo-K-1; first compound 0.03162 µM
  relative viability: 0.743
ChaGo-K-1; first compound 0.1 µM
  relative viability: 0.739
ChaGo-K-1; first compound 0.3162 µM
  relative viability: 0.785
ChaGo-K-1; first compound 1 µM
  relative viability: 0.793
HCC-78; first compound 0.01 µM
  relative viability: 0.496
HCC-78; first compound 0.03162 µM
  relative viability: 0.469
HCC-78; first compound 0.1 µM
  relative viability: 0.498
HCC-78; first compound 0.3162 µM
  relative viability: 0.425
HCC-78; first compound 1 µM
  relative viability: 0.349
CAL-12T; first compound 0.01 µM
  relative viability: 0.861
CAL-12T; first compound 0.03162 µM
  relative viability: 0.693
CAL-12T; first compound 0.1 µM
  relative viability: 0.9
CAL-12T; first compound 0.3162 µM
  relative viability: 0.276
CAL-12T; first compound 1 µM
  relative viability: 0.167
LXF-289; first compound 0.01 µM
  relative viability: 0.67
LXF-289; first compound 0.03162 µM
  relative viability: 0.802
LXF-289; first compound 0.1 µM
  relative viability: 0.77
LXF-289; first compound 0.3162 µM
  relative viability: 0.78
LXF-289; first compound 1 µM
  relative viability: 0.83
NCI-H2085; first compound 0.01 µM
  relative viability: 0.788
NCI-H2085; first compound 0.03162 µM
  relative viability: 0.784
NCI-H2085; first compound 0.1 µM
  relative viability: 0.862
NCI-H2085; first compound 0.3162 µM
  relative viability: 0.803
NCI-H2085; first compound 1 µM
  relative viability: 0.628
NCI-H1975; first compound 0.01 µM
  relative viability: 0.725
NCI-H1975; first compound 0.03162 µM
  relative viability: 0.641
NCI-H1975; first compound 0.1 µM
  relative viability: 0.655
NCI-H1975; first compound 0.3162 µM
  relative viability: 0.626
NCI-H1975; first compound 1 µM
  relative viability: 0.401
NCI-H441; first compound 0.01 µM
  relative viability: 1.09
NCI-H441; first compound 0.03162 µM
  relative viability: 0.804
NCI-H441; first compound 0.1 µM
  relative viability: 1.01
NCI-H441; first compound 0.3162 µM
  relative viability: 0.864
NCI-H441; first compound 1 µM
  relative viability: 0.312
NCI-H1993; first compound 0.01 µM
  relative viability: 0.764
NCI-H1993; first compound 0.03162 µM
  relative viability: 0.729
NCI-H1993; first compound 0.1 µM
  relative viability: 0.725
NCI-H1993; first compound 0.3162 µM
  relative viability: 0.813
NCI-H1993; first compound 1 µM
  relative viability: 0.391
ABC-1; first compound 0.01 µM
  relative viability: 0.847
ABC-1; first compound 0.03162 µM
  relative viability: 1.47
ABC-1; first compound 0.1 µM
  relative viability: 1.04
ABC-1; first compound 0.3162 µM
  relative viability: 0.976
ABC-1; first compound 1 µM
  relative viability: 0.314
UMC-11; first compound 0.01 µM
  relative viability: 0.373
UMC-11; first compound 0.03162 µM
  relative viability: 0.297
UMC-11; first compound 0.1 µM
  relative viability: 0.324
UMC-11; first compound 0.3162 µM
  relative viability: 0.271
UMC-11; first compound 1 µM
  relative viability: 0.194
NCI-H2023; first compound 0.01 µM
  relative viability: 0.548
NCI-H2023; first compound 0.03162 µM
  relative viability: 0.415
NCI-H2023; first compound 0.1 µM
  relative viability: 0.257
NCI-H2023; first compound 0.3162 µM
  relative viability: 0.184
NCI-H2023; first compound 1 µM
  relative viability: 0.0942
COR-L 105; first compound 0.01 µM
  relative viability: 0.989
COR-L 105; first compound 0.03162 µM
  relative viability: 0.823
COR-L 105; first compound 0.1 µM
  relative viability: 0.808
COR-L 105; first compound 0.3162 µM
  relative viability: 0.609
COR-L 105; first compound 1 µM
  relative viability: 0.444
NCI-H1915; first compound 0.01 µM
  relative viability: 0.567
NCI-H1915; first compound 0.03162 µM
  relative viability: 0.526
NCI-H1915; first compound 0.1 µM
  relative viability: 0.462
NCI-H1915; first compound 0.3162 µM
  relative viability: 0.474
NCI-H1915; first compound 1 µM
  relative viability: 0.373
NCI-H358; first compound 0.01 µM
  relative viability: 0.687
NCI-H358; first compound 0.03162 µM
  relative viability: 0.667
NCI-H358; first compound 0.1 µM
  relative viability: 0.658
NCI-H358; first compound 0.3162 µM
  relative viability: 0.346
NCI-H358; first compound 1 µM
  relative viability: 0.0934
NCI-H322M; first compound 0.01 µM
  relative viability: 0.822
NCI-H322M; first compound 0.03162 µM
  relative viability: 0.967
NCI-H322M; first compound 0.1 µM
  relative viability: 0.935
NCI-H322M; first compound 0.3162 µM
  relative viability: 0.792
NCI-H322M; first compound 1 µM
  relative viability: 0.478
NCI-H1755; first compound 0.01 µM
  relative viability: 0.804
NCI-H1755; first compound 0.03162 µM
  relative viability: 0.723
NCI-H1755; first compound 0.1 µM
  relative viability: 0.72
NCI-H1755; first compound 0.3162 µM
  relative viability: 0.663
NCI-H1755; first compound 1 µM
  relative viability: 0.423
HOP-62; first compound 0.01 µM
  relative viability: 0.571
HOP-62; first compound 0.03162 µM
  relative viability: 0.68
HOP-62; first compound 0.1 µM
  relative viability: 0.701
HOP-62; first compound 0.3162 µM
  relative viability: 0.607
HOP-62; first compound 1 µM
  relative viability: 0.237
EPLC-272H; first compound 0.01 µM
  relative viability: 0.705
EPLC-272H; first compound 0.03162 µM
  relative viability: 0.543
EPLC-272H; first compound 0.1 µM
  relative viability: 0.383
EPLC-272H; first compound 0.3162 µM
  relative viability: 0.107
EPLC-272H; first compound 1 µM
  relative viability: 0.0642
NCI-H1666; first compound 0.01 µM
  relative viability: 1.16
NCI-H1666; first compound 0.03162 µM
  relative viability: 1.17
NCI-H1666; first compound 0.1 µM
  relative viability: 1.22
NCI-H1666; first compound 0.3162 µM
  relative viability: 1.21
NCI-H1666; first compound 1 µM
  relative viability: 1.07
EMC-BAC-2; first compound 0.01 µM
  relative viability: 0.416
EMC-BAC-2; first compound 0.03162 µM
  relative viability: 0.475
EMC-BAC-2; first compound 0.1 µM
  relative viability: 0.523
EMC-BAC-2; first compound 0.3162 µM
  relative viability: 0.456
EMC-BAC-2; first compound 1 µM
  relative viability: 0.456

From the supplement of paper PMC10307832
